# In patent publication US11092610B2, “Biomarker SBP1 for early diagnosis of kidney diseases, and use thereof” (CELLGENTEK CO., LTD., priority 2016, dated 2021):
# Assays:
# Sprague-Dawley rat = assay: Diabetic animal model induced by STZ administration (blood glucose, urine and renal failure markers); type: in vivo
# Method: To verify a diabetic animal model induced by STZ administration according to Example 1-1 of the present invention, an experiment was carried out by designing the experimental model as described in FIG. 1A.
# However, in an experimental group in which diabetic animals are treated with an antidiabetic drug, it was confirmed that a blood glucose level was decreased gradually on Day 7, Day 14 and Day 21, and decreased to almost the normal level on the last day, Day 28.
# Then, it was confirmed whether renal failure occurs in a diabetic animal model induced by STZ administration. […] It can be seen that, in the anti-diabetic drug-administered group, the BUN and creatinine levels are decreased to a normal range.
# SD rats = assay: Drug (cisplatin)-induced renal failure animal model; type: in vivo, rat; details: 10 mg/kg I.P.
# Method: On Day 1, Day 3 and Day 5 after the injection, protein contents in urine obtained for 24 hours were measured in rats of the cisplatin-administered experimental group and the untreated control.
# (§1) The extracted proteins were dissolved, and transferred to a nitrocellulose membrane. Here, methanol was added to a transfer buffer, and the reaction was performed at 80 V for 1 hour. After the proteins were transferred, the membrane was stained with Ponceau S (within 10 seconds to 1 minute, slightly stained to see a band), and sufficiently washed with DW or PBS for blocking. Here, a blocking buffer was used by dissolving 3 to 5% bovine serum albumin (BSA) in a solution in which TWEEN™ 20 was contained in Tris-buffered saline (TBS). A primary antibody was reacted at 4° C. overnight, rinsed with a wash buffer (surfactant-containing TBS or PBS) to remove unbinding primary antibodies, and then secondary antibodies were reacted. After the secondary antibodies were reacted, unbinding secondary antibodies were rinsed with a washing buffer, and a band was identified using luminol.
# A supernatant was obtained by centrifuging each urine sample at 3000 g for 15 minutes, and stored in a freezer at −80° C. Following the urine collection, experimental animals were anesthetized with carbon dioxide to collect blood from the abdominal aorta, and after natural death due to bleeding, the kidneys and liver were extracted. A supernatant was obtained by centrifuging each blood sample at 1500 g for 15 minutes, and stored in a freezer at −80° C. The obtained urine and blood samples were subjected to detection of conventional markers using a test kit corresponding to each parameter.
# rat = assay: Hepatotoxicity model (carbon tetrachloride), liver findings and urinary SBP1; type: in vivo
# Method: as §1
# To confirm whether urinary SBP1 is released in a hepatotoxicity model, a hepatotoxic material such as carbon tetrachloride (CCl4) was administered to a rat to induce hepatotoxicity, and then SBP1 level in urine was measured.
# [1] = STZ 50 mg/kg single dose I.P., rat
# [2] = after administration of hepatotoxic material
# [3] = one day after administration, then decreased
compound,measurement,setting,value
"CN(N=O)C(=O)N[C@@H](C=O)[C@@H](O)[C@H](O)[C@H](O)CO [STZ, streptozocin]",blood glucose level,Sprague-Dawley rat; [1],≥ 600 mg/dL
same,"blood glucose level, increase compared to the control",Sprague-Dawley rat; [1],≥ 6 fold
same,"BUN, increase compared to the control","Sprague-Dawley rat; STZ-administered group, rat",≥ 2 fold
same,"creatinine, increase compared to the control","Sprague-Dawley rat; STZ-administered group, rat",≥ 2 fold
same,"microalbumin in urine, increase compared to the control","Sprague-Dawley rat; STZ-administered group, rat",≥ 10 fold
same,"urine volume, increase compared to the control",Sprague-Dawley rat; diabetic animal induced by STZ administration,≥ 3 fold
N.N.[Cl][Pt][Cl] [cisplatin],BUN compared with the control,SD rats; Day 1,no significant differences
same,kidney tissue damage (histology),SD rats; Day 1,mildly damaged
same,serum creatinine compared with the control,SD rats; Day 1,no significant differences
same,urinary SBP1 level (western blotting),SD rats; Day 1,increased
same,BUN compared with the control,SD rats; Day 3,significantly increased
same,serum creatinine compared with the control,SD rats; Day 3,significantly increased
same,urinary SBP1 level compared with the control,SD rats; Day 3,highly increased
same,"BUN, increase compared with the control",SD rats; Day 5,3 to 5 fold
same,kidney tissue damage (histology),SD rats; Day 5,most tubules were severely damaged
same,"serum creatinine, increase compared with the control",SD rats; Day 5,3 to 5 fold
same,urinary SBP1 level (western blotting),SD rats; Day 5,detected at a very high level
ClC(Cl)(Cl)Cl [carbon tetrachloride],BUN,rat; [2],no changes
same,SBP1 in urine (western blotting),rat; [2],not detected
same,creatinine,rat; [2],no changes
same,ALT level compared with the control,rat; [3],increased
same,AST level compared with the control,rat; [3],increased
same,"hepatotoxicity, liver histopathology (H&E staining)","rat; rat liver, from one day after administration",severe liver failure was observed
